Results published in PMC6901909, “Synergy Pattern of Short Cationic Antimicrobial Peptides Against Multidrug-Resistant Pseudomonas aeruginosa” (Frontiers in Microbiology, 2019).
Values after ≈ are worked out from the molar mass of the structure shown. Read-outs that look alike come from different tables or passages of the source. Each block holds one compound with its values, some of them ahead of it. Bridge positions count the residues as written; N and C are the ends. Square brackets hold non-standard residues; d marks the D form. Peptide text beside a SMILES is read from it. * marks the point of attachment. X1 = CC[C@H](C)CCCCC(=O)*; Dab = NCC[C@H](N)C(=O)O

Experiments:
MDR P. aeruginosa PA 927 = assay: microbe, parasite or virus in culture; assay type: cell-based, Pseudomonas aeruginosa; conditions: conventional antibiotics, microdilution, Mueller-Hinton broth, 2–5 10^5 CFU/ml, 18 h at 37°C, read visually, at least three repeats (n = 3)
Method in brief: (§1)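 Inoculum 2–5 10^5 CFU/ml in Mueller-Hinton broth, compounds twofold serially diluted, polypropylene microtiter plates. Strains are MDR isolates from clinical and municipal waste water.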

P. aeruginosa PA01-wt = assay: microbe, parasite or virus in culture; assay type: cell-based, Pseudomonas aeruginosa; conditions: for MIC: conventional antibiotics, microdilution, Mueller-Hinton broth, 2–5 10^5 CFU/ml, 18 h at 37°C, read visually, at least three repeats (n = 3)
MDR P. aeruginosa PA 910 = assay: microbe, parasite or virus in culture; assay type: cell-based, Pseudomonas aeruginosa
Method in brief: as §1

MDR P. aeruginosa PA 915 = assay: microbe, parasite or virus in culture; assay type: cell-based, Pseudomonas aeruginosa; conditions: conventional antibiotics, microdilution, Mueller-Hinton broth, 2–5 10^5 CFU/ml, 18 h at 37°C, read visually, at least three repeats (n = 3)
Method in brief: as §1

MDR P. aeruginosa PA253 = assay: microbe, parasite or virus in culture; assay type: cell-based, Pseudomonas aeruginosa; conditions: for MIC: conventional antibiotics, microdilution, Mueller-Hinton broth, 2–5 10^5 CFU/ml, 18 h at 37°C, read visually, at least three repeats (n = 3)
Method in brief: as §1

MDR P. aeruginosa PA 919 = assay: microbe, parasite or virus in culture; assay type: cell-based, Pseudomonas aeruginosa; conditions: for MIC: conventional antibiotics, microdilution, Mueller-Hinton broth, 2–5 10^5 CFU/ml, 18 h at 37°C, read visually, at least three repeats (n = 3)
Method in brief: as §1

MDR P. aeruginosa PA 923 = assay: microbe, parasite or virus in culture; assay type: cell-based, Pseudomonas aeruginosa; conditions: conventional antibiotics, microdilution, Mueller-Hinton broth, 2–5 10^5 CFU/ml, 18 h at 37°C, read visually, at least three repeats (n = 3)
Method in brief: as §1

[1] = tested on: MDR isolate of P. aeruginosa (PA 910); conditions: checkerboard, MHb, for the Indopt versions 1/8 MHb, 2–5 × 10^5 CFU/ml, 37°C, 18 h, visual, determined once (n = 1)
Method: The checkerboard assay was used to determine the fractional inhibitory concentrations (FICs), following the protocol described in Koneman’s Color Atlas and Textbook of Diagnostic Microbiology ([Winn et al., 2006]). Briefly, combinations of peptides and antibiotics were prepared in 96-well plates (polypropylene, Corning) in a twofold dilution series. After the addition of a log-phase bacterial inoculum of 2–5 × 10^5 CFU/ml, plates were incubated at 37°C for 18 h. The FICs were determined by visual inspection and the effects of the combinations were determined using the FICs. The FIC was computed by adding two partial FIC values, FICA—the MIC of drug A, tested in combination with drug B divided by the MIC of drug A, tested alone and FICB—the MIC of drug B, tested in combination with drug A divided by the MIC of drug B, tested alone [FIC = FICA + FICB = (MICAB/MICA) + (MICBA/MICB), where MICA and MICB are the MICs of drugs A and B alone, respectively, and MICAB and MICBA are the MIC concentrations of the drugs in combination]. Here we use the European Committee for Antimicrobial Susceptibility Testing (EUCAST) definition, which is very similar to the definition provided by [Odds, 2003], except Odds define additive effects when FIC values are between 0.5 and 1 ([European Committee for Antimicrobial Susceptibility Testing [EUCAST] of the European Society of Clinical Microbiology and Infectious Diseases [ESCMID], 2000]; [Odds, 2003]). The combination of peptide (drug A) and antibiotics (drug B) was defined as synergistic if the FIC was ≤ 0.5, indifferent if the FIC was > 0.5 but ≤ 4.0 and antagonistic if the FIC was > 4.0.

[2] = Pseudomonas aeruginosa, 18 h, antibiotic alone, as listed in the FIC table, read-out: MIC against PA910 in μM (antibiotics, head of Table 4)
[3] = Pseudomonas aeruginosa, conventional antibiotics, microdilution, Mueller-Hinton broth, 2–5 10^5 CFU/ml, 18 h at 37°C, read visually, at least three repeats (n = 3), read-out: MIC PA 910

Compound: CN(C)[C@@H]1C(O)=C(C(N)=O)C(=O)[C@@]2(O)C(O)=C3C(=O)c4c(O)cccc4[C@@](C)(O)[C@H]3C[C@@H]12 [Tetracyclin]
- MIC (MDR P. aeruginosa PA 927; Pseudomonas aeruginosa): 16 µM (≈ 7.11 µg/mL)
- MIC (P. aeruginosa PA01-wt; Pseudomonas aeruginosa, PA01WT): 8 µM (≈ 3.56 µg/mL)
- MIC (MDR P. aeruginosa PA 910; [2]): 64 µM
- MIC (MDR P. aeruginosa PA 910; [3]): 64 µM (≈ 28.4 µg/mL)
- MIC (MDR P. aeruginosa PA 915; Pseudomonas aeruginosa): 16 µM (≈ 7.11 µg/mL)
- MIC (MDR P. aeruginosa PA253; Pseudomonas aeruginosa): 32 µM (≈ 14.2 µg/mL)
- MIC (MDR P. aeruginosa PA 919; Pseudomonas aeruginosa): 32 µM (≈ 14.2 µg/mL)
- MIC (MDR P. aeruginosa PA 923; Pseudomonas aeruginosa): > 512 µM

- MIC (MDR P. aeruginosa PA 927; Pseudomonas aeruginosa): 128 µM (≈ 61.1 µg/mL)
- MIC (P. aeruginosa PA01-wt; Pseudomonas aeruginosa, PA01WT): 1 µM (≈ 0.478 µg/mL)
- MIC (MDR P. aeruginosa PA 910; [2]): 128 µM
- MIC (MDR P. aeruginosa PA 910; [3]): 128 µM (≈ 61.1 µg/mL)
- MIC (MDR P. aeruginosa PA 915; Pseudomonas aeruginosa): 128 to 256 µM (≈ 61.1 to 122 µg/mL)
- MIC (MDR P. aeruginosa PA253; Pseudomonas aeruginosa): > 256 µM
- MIC (MDR P. aeruginosa PA 919; Pseudomonas aeruginosa): 128 µM (≈ 61.1 µg/mL)
- MIC (MDR P. aeruginosa PA 923; Pseudomonas aeruginosa): 128 µM (≈ 61.1 µg/mL)
Compound: CNC(C)C1CCC(N)C(OC2C(N)CC(N)C(OC3OCC(C)(O)C(NC)C3O)C2O)O1 (centres unmarked) [Gentamycin]

- MIC (MDR P. aeruginosa PA 927): 0.25 µM (≈ 0.301 µg/mL)
- MIC (P. aeruginosa PA01-wt): 0.125 µM (≈ 0.15 µg/mL)
- MIC (MDR P. aeruginosa PA 910; antibiotic alone, as listed in the FIC table, read-out: MIC against PA910 in μM (antibiotics, head of Table 4)): 0.13 µM
- MIC (MDR P. aeruginosa PA 910; conventional antibiotics, microdilution, Mueller-Hinton broth, 2–5 10^5 CFU/ml, 18 h at 37°C, read visually, at least three repeats (n = 3), read-out: MIC PA 910): 0.125 µM (≈ 0.15 µg/mL)
- MIC (MDR P. aeruginosa PA 915): 0.25 µM (≈ 0.301 µg/mL)
- MIC (MDR P. aeruginosa PA253): 0.125 µM (≈ 0.15 µg/mL)
- MIC (MDR P. aeruginosa PA 919): 0.125 µM (≈ 0.15 µg/mL)
- MIC (MDR P. aeruginosa PA 923): 0.25 µM (≈ 0.301 µg/mL)
Compound: CC[C@H](C)CCCCC(=O)N[C@@H](CCN)C(=O)N[C@H](C(=O)N[C@@H](CCN)C(=O)N[C@H]1CCNC(=O)[C@H]([C@@H](C)O)NC(=O)[C@H](CCN)NC(=O)[C@H](CCN)NC(=O)[C@H](CC(C)C)NC(=O)[C@@H](Cc2ccccc2)NC(=O)[C@H](CCN)NC1=O)[C@@H](C)O [Polymyxin B] (X1-[Dab]T[Dab][Dab][Dab][dF]L[Dab][Dab]T; lactam 4-C (inferred); N-terminus assumed)

Compound: CC[C@H](C)[C@H](NC(=O)[C@H](CCCNC(=N)N)NC(=O)[C@H](Cc1c[nH]c2ccccc12)NC(=O)[C@H](CC(C)C)NC(=O)[C@@H](N)CCCNC(=N)N)C(=O)N[C@H](C(=O)N[C@H](C(=O)N[C@H](C(=O)N[C@@H](CCCNC(=N)N)C(=O)N[C@H](C(=O)N[C@@H](CCCCN)C(=O)N[C@@H](CCCNC(=N)N)C(N)=O)C(C)C)[C@@H](C)CC)C(C)C)C(C)C [Sub 7] (H-RLWRIVVIRVKR-NH2)
- MIC against PA01 wt (P. aeruginosa PA01-wt; -wt, 18 h): 16 µM (≈ 25.5 µg/mL)
- MIC against PA910 in μM (peptides, Table 4) (MDR P. aeruginosa PA 910; peptide alone, as listed in the FIC table): 32 µM
- MIC against MDR isolates of PA, PA253 (MDR P. aeruginosa PA253; MDR PA253, 18 h): 16 µM
- MIC against MDR isolates of PA, PA919 (MDR P. aeruginosa PA 919; MDR PA 919, 18 h): 32 µM
- FIC, combination with AMI ([1]; peptide + amikacin): 0.53
- FIC, combination with CEF ([1]; peptide + cefepime): 0.56
- FIC, combination with CET ([1]; peptide + ceftazidime): 0.56
- FIC, combination with CIP ([1]; peptide + ciprofloxacin): 0.75
- FIC, combination with ERY ([1]; peptide + erythromycin): 0.5
- FIC, combination with GEN ([1]; peptide + gentamycin): 0.75
- FIC, combination with IMI ([1]; peptide + imipenem): 2
- FIC, combination with KAN ([1]; peptide + kanamycin): 0.63
- FIC, combination with MER ([1]; peptide + meropenem): 0.51
- FIC, combination with PIP ([1]; peptide + piperacillin): 0.53
- FIC, combination with PMB ([1]; peptide + polymyxin B): 1
- FIC, combination with TET ([1]; peptide + tetracycline): 0.5
- FIC, combination with TOB ([1]; peptide + tobramycin): 2
